Measured values reported in the NIST ThermoML archive (doi:10.1021/acs.jced.7b00971).

Columns and labels:
[1] = xn = mol fraction of the nth substance listed; conditions: 101 kPa, Liquid, Capillary tube (Ostwald / Ubbelohde) method
[2] = 101 kPa, Liquid, Capillary tube (Ostwald / Ubbelohde) method

CO [methanol] + Cc1ccccc1C
[1], x1 = 1
Conditions | viscosity [mPa·s]
303.15 K | 0.513
308.15 K | 0.48
313.15 K | 0.45
318.15 K | 0.422
323.15 K | 0.397

CO [methanol] + Cc1ccc(C)cc1
[1], x1 = 1
Conditions | viscosity [mPa·s]
303.15 K | 0.513
308.15 K | 0.48
313.15 K | 0.45
318.15 K | 0.422
323.15 K | 0.397

Cc1cccc(C)c1 [1,3-dimethylbenzene]
[2]
Conditions | viscosity [mPa·s]
303.15 K | 0.554
308.15 K | 0.524
313.15 K | 0.498
318.15 K | 0.472
323.15 K | 0.452

Cc1ccc(C)cc1 [1,4-dimethylbenzene] + CO
viscosity [mPa·s], [1]
Conditions | x2 = 0 | x2 = 0.1001 | x2 = 0.1998 | x2 = 0.3015 | x2 = 0.4005 | x2 = 0.5 | x2 = 0.5999 | x2 = 0.7005 | x2 = 0.8 | x2 = 0.8984
303.15 K | 0.574 | 0.559 | 0.556 | 0.563 | 0.567 | 0.573 | 0.576 | 0.577 | 0.568 | 0.549
308.15 K | 0.542 | 0.527 | 0.524 | 0.527 | 0.529 | 0.533 | 0.536 | 0.536 | 0.529 | 0.512
313.15 K | 0.514 | 0.498 | 0.494 | 0.496 | 0.498 | 0.501 | 0.504 | 0.502 | 0.495 | 0.479
318.15 K | 0.486 | 0.469 | 0.465 | 0.466 | 0.467 | 0.469 | 0.469 | 0.469 | 0.462 | 0.447
323.15 K | 0.461 | 0.445 | 0.439 | 0.44 | 0.44 | 0.443 | 0.443 | 0.441 | 0.434 | 0.42

Cc1ccc(C)cc1 [1,4-dimethylbenzene]
[2]
Conditions | viscosity [mPa·s]
303.15 K | 0.574
308.15 K | 0.542
313.15 K | 0.514
318.15 K | 0.486
323.15 K | 0.461
